In patent US20070167512A1, “Lipid metabolism improving agent” (Kyowa Hakko Kogyo Co., Ltd., priority 2003, published 2007):

Columns and labels:
[1] = system: KK-Ay/Ta Jcl mice (animal models for hypertriglyceridemia and hyper-free fatty acidemia); experiment: Serum triglyceride concentration in KK-Ay/Ta Jcl mice fed compound-supplemented CE-2 feed (Triglyceride G-Test Wako); type: in vivo; details: for Triglyceride (serum concentration): KK-Ay/Ta Jcl male mice, 1% by weight in CE-2 feed ad libitum, serum after 18 h fast, 10th-11th day, mean ± standard error (n=5), Group 1 (CE-2 only) 282.4 ± 30.3; for Action for improving hypertriglyceridemia (conclusion) / Serum triglyceride concentration as compared with Group 1 (in words): KK-Ay/Ta Jcl mice, 1% by weight in feed; for Serum triglyceride concentration as compared with Group 1 (in words): t-test, p < 0.01 where significant
Text: (§1) KK-Ay/Ta Jcl mice (CLEA JAPAN; males; six weeks age) (25 mice) which are animal models for appearing hypertriglyceridemia and hyper-free fatty acidemia were divided into five groups each comprising five mice and named group 1 to group 5.
(§2) The mice of group 1 to group 5 were made free to take feed and water. A commercially available feed CE-2 (manufactured by CLEA JAPAN) was ingested to the mice of group 1. CE-2 to which 1% by weight of trans-4-hydroxy-L-proline (manufactured by Kyowa Hakko Kogyo; hereinafter, abbreviated as hydroxyproline) was added was ingested to the mice of group 2. CE-2 to which 1% by weight of trans-N-acetyl-4-hydroxy-L-proline (manufactured by Kyowa Hakko Kogyo; hereinafter, abbreviated as N-acetylhydroxyproline) was added was ingested to the mice of group 3. CE-2 to which 1% by weight of trans-4-hydroxy-L-proline ethyl ester (manufactured by Sanyo Kagaku Kenkyusho; hereinafter, abbreviated as hydroxyproline ethyl ester) was added was ingested to the mice of group 4. CE-2 to which 1% by weight of trans-N,O-diacetyl-4-hydroxy-L-proline oleyl ester (manufactured by Nissei Kagaku; hereinafter, abbreviated as diacetylhydroxyproline oleyl ester) was added was ingested to the mice of group 5.
(§3) The mice were fasted for 18 hours during the 10th day to the 11th day after the start of the test and whole blood was collected from descending vena carva to prepare serum. Concentration of triglyceride in the serum was measured by a Triglyceride G-Test Wako (manufactured by Wako Pure Chemical) and concentration of free fatty acids therein was measured by an NEFA C-Test Wak (manufactured by Wako Pure Chemical). The value was shown by mean value ± standard error (n=5) and statistic ratio of risk (p value) was determined by a t-test. With regard to the ingested amounts during the test period, there was no significant difference among the groups 1 to 5.

[2] = system: KK-Ay/Ta Jcl mice (animal models for hypertriglyceridemia and hyper-free fatty acidemia); experiment: Serum free fatty acid concentration in KK-Ay/Ta Jcl mice fed compound-supplemented CE-2 feed (NEFA C-Test); type: in vivo; details: for Free Fatty Acid (serum concentration): KK-Ay/Ta Jcl male mice, 1% by weight in CE-2 feed ad libitum, serum after 18 h fast, 10th-11th day, mean ± standard error (n=5), Group 1 (CE-2 only) 1.12 ± 0.05; for Action for improving hyper-free fatty acidemia (conclusion) / Free fatty acid concentration in serum as compared with Group 1 (in words): KK-Ay/Ta Jcl mice, 1% by weight in feed; for Free fatty acid concentration in serum as compared with Group 1 (in words): t-test, p < 0.005 where significant
Text: as §1, §2, §3

Structure (SMILES) | Triglyceride (serum concentration) [1] | Action for improving hypertriglyceridemia (conclusion) [1] | Serum triglyceride concentration as compared with Group 1 (in words) [1] | Free Fatty Acid (serum concentration) [2] | Action for improving hyper-free fatty acidemia (conclusion) [2] | Free fatty acid concentration in serum as compared with Group 1 (in words) [2]
CCOC(=O)[C@@H]1C[C@@H](O)CN1 [hydroxyproline ethyl ester, trans-4-hydroxy-L-proline ethyl ester] | 168.7 ± 13.4 mg/dL | action for improving hypertriglyceridemia | significantly low | 0.68 ± 0.02 mEq/l | action for improving hyper-free fatty acidemia | significantly low
CC(=O)N1C[C@H](O)C[C@H]1C(=O)O [N-acetylhydroxyproline, trans-N-acetyl-4-hydroxy-L-proline] | 156.4 ± 23.3 mg/dL | action for improving hypertriglyceridemia | significantly low | 0.77 ± 0.06 mEq/l | action for improving hyper-free fatty acidemia | significantly low
CCCCCCCC/C=C\CCCCCCCCOC(=O)[C@@H]1C[C@@H](OC(C)=O)CN1C(C)=O (relative stereo) [diacetylhydroxyproline oleyl ester, trans-N,O-diacetyl-4-hydroxy-L-proline oleyl ester] | 217.6 ± 18.3 mg/dL | action for improving hypertriglyceridemia | tended to show low values | 1.00 ± 0.07 mEq/l | action for improving hyper-free fatty acidemia | tended to show low values
O=C(O)[C@@H]1C[C@@H](O)CN1 [hydroxyproline, trans-4-hydroxy-L-proline] | 224.3 ± 23.1 mg/dL | action for improving hypertriglyceridemia | tended to show low values | 0.84 ± 0.05 mEq/l | action for improving hyper-free fatty acidemia | significantly low
